Data published in paper PMC8648872, “A host-directed macrocyclic peptide therapeutic for MDR gram negative bacterial infections” (Scientific Reports, 2021).
Where a SMILES comes first, the peptide text is derived from it. Bridges are numbered along the chain shown (N, C = ends).

Key:
Type in all cases: in vivo, BALB/c mice
[1] = test system: Kp-1705 (K. pneumoniae BAA-1705); assay: Kp-1705 bacteremic sepsis, survival; conditions: for long term (≥ 28 days) survival: Kp-1705 i.p. in BALB/c mice
Method: BALB/c mice (Jackson Laboratories) 8–10 weeks of age were acclimated (3–5 to a cage for at least 5 days prior to infection) in a thermostatically controlled room with 12 h light/dark cycle. Cryopreserved K. pneumoniae cells were thawed and adjusted to a density of 6–10 × 10^8 CFU/ml, confirmed by plating on trypticase soy agar (TSA) plates. E. coli BAA-2340 was grown to log-phase in trypticase soy broth, pelleted, washed with PBS, and resuspended in PBS at 0.5–1 × 10^9 CFU/ml. Mice were infected by i.p. injection of 2–5 × 10^8 CFU of Kp-1705 or 3–6 × 10^7 CFU of E. coli BAA-2340 using a 28 g needle in a volume of 0.5 ml. Post-infection, mice were observed three times a day for at least 4 days and then daily for 28 days. Mice were euthanized when they became moribund. All experiments used both male and female mice and were repeated at least twice.

[2] = Single dose pharmacokinetics (plasma and peritoneal fluid); conditions: both sexes, mouse, ip, 1.25 mg/kg single i.p., LC-MS/MS
Method: Single dose PK of MTD12813 was evaluated by quantifying plasma peptide concentrations following 1.25 mg/kg injections administered i.p. to 2 M/2F BALB/c mice. EDTA plasma was prepared from blood collected aseptically by terminal cardiac puncture. MTD12813 plasma concentrations were determined by reverse-phase liquid chromatography (XBridge phenyl 3.5 µm column, Waters) on an Acquity H-Class UPLC (Waters) with tandem electrospray mass spectroscopy on a Xevo TQ-S running MassLynx V4.1 (Waters). Quantitative mass spectroscopy was performed by multiple-reaction monitoring transition 394.04 > 519.35, with area under the curve determined by TargetLynx (Waters).
Cryopreserved Kp-1705 was suspended in PBS to a density of ca. 1 × 10^9 CFU/ml, and incubated with saline or 1.25 µg/ml MTD12813 at room temperature for 1 h. […] In vitro antibacterial activity of MTD12813 (1.25 μg/ml) -treated cells (1 h; 37 °C) was determined by plating saline or peptide treated cells on TSA plates. Growth kinetics of saline and MTD12813-treated cells was determined by diluting samples from the 1 h incubation mixtures 1:40 into TSB and monitoring growth (620 nm) for 5.5 h at 37 °C. Antibacterial activity of MTD12813 in PF was determined by i.p. injection of naïve male BALB/c mice (n = 5 per group) with 1.25 mg/kg of MTD12813 or saline i.p. (10 ml/kg). […]

neutrophils = assay: Neutrophil recruitment (peritoneal lavage and blood)
Method: Blood, peritoneal lavage fluid, and spleen homogenates were obtained from mice following by CO2 euthanasia. Citrate-anti-coagulated blood was collected by aseptic cardiac puncture. Peritoneal lavage was performed by injecting 3 ml of PBS into the peritoneal cavity, massaging the abdomen, and then collecting fluid aseptically through a minor incision in the abdominal wall. Spleen was surgically removed and homogenized in sterile PBS using Polytron PT10-35 homogenizer. Samples were serially diluted and plated in triplicate on TSA plates, incubated overnight at 37 °C and colonies counted.
(§1) EDTA-anticoagulated blood was collected aseptically by terminal cardiac puncture and analyzed for complete blood cell count using an Element HT5 hematology analyzer (Heska). Blood plasma and clarified peritoneal lavage were prepared by two-step centrifugation described previously. Plasma cytokine levels were quantified using a mouse-specific MILLIPLEX MAP kit (Millipore Cat# MCYTMAG-70K) as described.

plasma cytokines = assay: Plasma cytokines in uninfected (sham infected) mice; conditions: single i.p. 1.25 mg/kg
Method: as §1
Supplemental Fig. 3. Transient stimulation of cytokines by MTD12813. Sham infected mice were injected i.p with PBS and treated i.p. 1 h later with 1.25 mg/kg MTD12813 (M) or saline (S). Four or 24 h post sham infection, animals were euthanized and plasma samples quantified by multiplex cytokine analysis. P values calculated using ANOVA with Uncorrected Fisher’s LSD comparing saline and […]

With `CC[C@H](C)[C@@H]1NC(=O)[C@@H]2CSSC[C@H](NC(=O)[C@H]([C@@H](C)CC)NC(=O)[C@@H]3CSSC[C@H](NC1=O)C(=O)N[C@@H](C(C)C)C(=O)NCC(=O)N[C@@H](CCCNC(=N)N)C(=O)NCC(=O)N3)C(=O)N[C@@H](C(C)C)C(=O)N[C@@H](CCCNC(=N)N)C(=O)N[C@@H](CCCNC(=N)N)C(=O)N[C@@H](CCCNC(=N)N)C(=O)N2` [MTD12813] (cyclo(CICVGRGCICVRRR); disulfide 1-10, 3-8) the “long term (≥ 28 days) survival” value ([1]; single i.p. dose 1.25 mg/kg 1 h p.i.) was 100%, the “long term (≥ 28 days) survival” value ([1]; single i.p. dose 5 mg/kg 1 h p.i.) was 100% and the “long term survival, timing of treatment” value ([1]; Kp-1705 i.p., single i.p. 1.25 mg/kg 1 h after infection (+1 h)) was “survived long term”. For the same compound, the “long term survival, timing of treatment” value ([1]; Kp-1705 i.p., single i.p. 1.25 mg/kg 1 h before infection (−1 h)) was “survived long term”, the “long term survival, timing of treatment” value ([1]; Kp-1705 i.p., single i.p. 1.25 mg/kg 3 h after infection (+3 h), P = 3.9 × 10^–3) was “half” and the “long term survival, timing of treatment” value ([1]; Kp-1705 i.p., single i.p. 1.25 mg/kg 3 h prior to infection (−3 h)) was “nearly equivalent efficacy”. For the same compound, the “survival benefit versus saline” value ([1]; Kp-1705 i.p., single i.p. dose 0.5 mg/kg 1 h p.i., P = 1.1 × 10^–3) was “survival benefit was still statistically significant”, the Cmax ([2]; naïve BALB/c mice (2M/2F per time point), EDTA plasma, read-out: peak plasma concentration (Cmax)) was 251 ± 79.8 ng/mL and the Tmax ([2]; naïve male and female BALB/c mice (2M/2F per time point), plasma) was 15 min. The “PLF neutrophils versus saline” value (neutrophils; Kp-1705 infected mice, 1.25 mg/kg i.p. 1 h p.i., 24 h, P = 0.0048) was “threefold increase”, the blood neutrophils (neutrophils; Kp-1705 infected mice, 1.25 mg/kg i.p. 1 h p.i., peak at ca. 2 h p.i.) was “transient peripheral blood neutrophilia” and the “PLF neutrophil numbers in sham-infected mice” value (neutrophils; sham-infected mice, 24 h after peptide delivery) was “no increase in neutrophil numbers”. The “plasma IL-5, IL-6 and CXCL1 versus vehicle” value (plasma cytokines; 4 h collection point) was “significantly elevated” and the “plasma IL-5, IL-6 and CXCL1” value (plasma cytokines; 24 h) was “returned to baseline”.
